Source: patent US9686988B2, “Pesticidal compounds based on arylthiosulfonamide derivatives” (Syngenta Participations AG, priority 2012, dated 2017)

Legend:
Type in all cases: in vivo
[1] = test system: Spodoptera littoralis; test: Spodoptera littoralis (Egyptian cotton leaf worm), cotton leaf disc spray test; details: foliar, 72 h, application rate of 200 ppm, mortality, anti-feedant effect, growth inhibition 3 days after infestation, L1 larvae
Protocol: Spodoptera littoralis (Egyptian Cotton Leaf Worm)
Cotton leaf discs were placed on agar in 24-well microtiter plates and sprayed with aqueous test solutions prepared from 10′000 ppm DMSO stock solutions. After drying the leaf discs were infested with five L1 larvae. The samples were assessed for mortality, anti-feedant effect, and growth inhibition 3 days after infestation. Control of Spodoptera littoralis by a test sample is noted when at least one of mortality, anti-feedant effect, and growth inhibition is better than the untreated sample.

[2] = test system: Heliothis virescens; test: Heliothis virescens (tobacco budworm), eggs on artificial diet; details: 120 h, application rate of 200 ppm, egg mortality, larval mortality, growth inhibition 5 days after infestation
Protocol: Heliothis virescens (Tobacco Budworm):
Eggs (0-24 h old) were placed in 24-well microtiter plates on artificial diet and treated with aqueous test solutions prepared from 10′000 ppm DMSO stock solutions by pipetting. The samples were assessed for egg mortality, larval mortality and growth inhibition 5 days after infestation. Control of Heliothis virescens by a test sample is noted when at least one of egg mortality, larval mortality and growth inhibition is better than the untreated sample.

[3] = test system: Plutella xylostella; test: Plutella xylostella (diamond back moth), L2 larvae on artificial diet; details: 120 h, application rate of 200 ppm, mortality and growth inhibition 5 days after infestation
Protocol: Plutella xylostella (Diamond Back Moth):
(§1) 24-well microtiter plates with artificial diet were treated with aqueous test solutions prepared from 10′000 ppm DMSO stock solutions by pipetting. After drying, the plates were infested with L2 larvae (10 to 15 per well). The samples were assessed for mortality and growth inhibition 5 days after infestation. Control of Plutella xyllostella by a test sample is noted when at least one of mortality and growth inhibition is better than the untreated sample.

[4] = test system: Diabrotica balteata; test: Diabrotica balteata (corn rootworm), L2 larvae on artificial diet; details: 120 h, application rate of 200 ppm, mortality and growth inhibition 5 days after infestation
Protocol: Diabrotica balteata (Corn Rootworm):
as §1, with “(6” for “(10”, “10” for “15”, “Diabrotica balteata” for “Plutella xyllostella”

[5] = test system: Thrips tabaci; test: Thrips tabaci (onion thrips), sunflower leaf disc spray test; details: foliar, 144 h, application rate of 200 ppm, mortality 6 days after infestation, mixed ages
Protocol: Thrips tabaci (Onion Thrips):
(§2) Sunflower leaf discs were placed on agar in 24-well microtiter plates and sprayed with aqueous test solutions prepared from 10′000 ppm DMSO stock solutions. After drying the leaf discs were infested with a thrips population of mixed ages. The samples were assessed for mortality 6 days after infestation.

[6] = test system: Tetranychus urticae; test: Tetranychus urticae (two-spotted spider mite), bean leaf disc spray test; details: foliar, 192 h, application rate of 200 ppm, mortality (mobile stages) 8 days after infestation, mixed ages
Protocol: Tetranychus urticae (Two-Spotted Spider Mite):
as §2, with “Bean” for “Sunflower”, “discs” for “discs were placed”, “were” for “and”, “mite” for “thrips”, “(mobile stages) 8” for “6”

[7] = test system: Myzus persicae; test: Myzus persicae (green peach aphid), sunflower leaf disc spray test; details: foliar, 144 h, read-out: mortality of Myzus persicae
Protocol: Myzus persicae (Green Peach Aphid):
Sunflower leaf discs were placed on agar in a 24-well microtiter plate and sprayed with aqueous test solutions prepared from 10′000 ppm DMSO stock solutions. After drying, the leaf discs were infested with an aphid population of mixed ages. The samples were assessed for mortality 6 days after infestation.

[8] = test system: Diabrotica balteata; test: Diabrotica balteata (corn rootworm), sprayed maize sprouts; details: 96 h, application rate of 200 ppm, 4 days after infestation, L2 larvae
Protocol: Diabrotica balteata, (Corn Rootworm)
Maize sprouts, placed on an agar layer in 24-well microtiter plates were treated with aqueous test solutions prepared from 10′000 ppm DMSO stock solutions by spraying. After drying, the plates were infested with L2 larvae (6 to 10 per well). The samples were assessed for mortality 4 days after infestation.

CCN(CC)S(=O)(=O)CSc1ccc(C2=NOC(c3cc(Cl)cc(Cl)c3)(C(F)(F)F)C2)cc1Br (stereo not shown) [Compound A2, 1-[2-bromo-4-[5-(3,5-dichlorophenyl)-5-(trifluoromethyl)-4H-isoxazol-3-yl]phenyl]sulfanyl-N,N-diethyl-methanesulfonamide]
≥ 80%: pest or weed control at 200 ppm [1] | pest or weed control at 200 ppm [2] | pest or weed control at 200 ppm [3] | pest or weed control at 200 ppm [4] | pest or weed control at 200 ppm [5] | pest or weed control at 200 ppm [6]

O=S(=O)(CSc1ccc(C2=NO[C@@](c3cc(Cl)cc(Cl)c3)(C(F)(F)F)C2)cc1Br)NC1CC1 [Compound B3, 1-[2-bromo-4-[(5S)-5-(3,5-dichlorophenyl)-5-(trifluoromethyl)-4H-isoxazol-3-yl]phenyl]sulfanyl-N-cyclopropyl-methanesulfonamide]
≥ 80%: pest or weed control at 200 ppm [1] | pest or weed control at 200 ppm [2] | pest or weed control at 200 ppm [3] | pest or weed control at 200 ppm [4] | pest or weed control at 200 ppm [5] | pest or weed control at 200 ppm [6]

CCNS(=O)(=O)CSc1ccc(C2=NO[C@@](c3cc(Cl)cc(Cl)c3)(C(F)(F)F)C2)cc1Br [Compound B1, 1-[2-bromo-4-[(5S)-5-(3,5-dichlorophenyl)-5-(trifluoromethyl)-4H-isoxazol-3-yl]phenyl]sulfanyl-N-ethyl-methanesulfonamide]
≥ 80%: pest or weed control at 200 ppm [1] | pest or weed control at 200 ppm [2] | pest or weed control at 200 ppm [3] | pest or weed control at 200 ppm [4] | mortality at 200 ppm [7] | pest or weed control at 200 ppm [5] | pest or weed control at 200 ppm [6]

CCNS(=O)(=O)CSc1ccc(C2=CSC(c3cc(Cl)cc(Cl)c3)(C(F)(F)F)C2)cc1Br (stereo not shown) [Compound D2, 1-[2-bromo-4-[2-(3,5-dichlorophenyl)-2-(trifluoromethyl)-3H-thiophen-4-yl]phenyl]sulfanyl-N-ethyl-methanesulfonamide]
≥ 80%: pest or weed control at 200 ppm [1] | pest or weed control at 200 ppm [2] | pest or weed control at 200 ppm [3] | mortality at 200 ppm [8]

O=S(=O)(CS(=O)(=O)c1ccc(C2=NOC(c3cc(Cl)cc(Cl)c3)(C(F)(F)F)C2)cc1Br)NC1CC1 (stereo not shown) [Compound B6, 1-[2-bromo-4-[5-(3,5-dichlorophenyl)-5-(trifluoromethyl)-4H-isoxazol-3-yl]phenyl]sulfonyl-N-cyclopropyl-methanesulfonamide]
≥ 80%: pest or weed control at 200 ppm [1] | pest or weed control at 200 ppm [2] | pest or weed control at 200 ppm [3] | pest or weed control at 200 ppm [4] | pest or weed control at 200 ppm [5] | pest or weed control at 200 ppm [6]

O=S(=O)(CSc1ccc(C2=NO[C@@](c3cc(Cl)cc(Cl)c3)(C(F)(F)F)C2)cc1Br)NCC(F)(F)F [Compound B2, 1-[2-bromo-4-[(5S)-5-(3,5-dichlorophenyl)-5-(trifluoromethyl)-4H-isoxazol-3-yl]phenyl]sulfanyl-N-(2,2,2-trifluoroethyl)-methanesulfonamide]
≥ 80%: pest or weed control at 200 ppm [1] | pest or weed control at 200 ppm [2] | pest or weed control at 200 ppm [3] | pest or weed control at 200 ppm [4] | pest or weed control at 200 ppm [5] | pest or weed control at 200 ppm [6]

CCNS(=O)(=O)CSc1ccc(C2=NOC(c3cc(Cl)cc(Cl)c3)(C(F)(F)F)C2)cc1Br (stereo not shown) [Compound A3, 1-[2-bromo-4-[5-(3,5-dichlorophenyl)-5-(trifluoromethyl)-4H-isoxazol-3-yl]phenyl]sulfanyl-N-ethyl-methanesulfonamide]
≥ 80%: pest or weed control at 200 ppm [1] | pest or weed control at 200 ppm [2] | pest or weed control at 200 ppm [3] | pest or weed control at 200 ppm [4] | mortality at 200 ppm [7] | pest or weed control at 200 ppm [5] | pest or weed control at 200 ppm [6]

CCN(CC)S(=O)(=O)CSc1ccc(C2=CSC(c3cc(Cl)cc(Cl)c3)(C(F)(F)F)C2)cc1Br (stereo not shown) [Compound D1, 1-[2-bromo-4-[2-(3,5-dichlorophenyl)-2-(trifluoromethyl)-3H-thiophen-4-yl]phenyl]sulfanyl-N,N-diethyl-methanesulfonamide]
≥ 80%: pest or weed control at 200 ppm [6]

NS(=O)(=O)CSc1ccc(C2=NOC(c3cc(Cl)cc(Cl)c3)(C(F)(F)F)C2)cc1Br (stereo not shown) [Compound A1, [2-bromo-4-[5-(3,5-dichlorophenyl)-5-(trifluoromethyl)-4H-isoxazol-3-yl]phenyl]sulfanylmethanesulfonamide]
≥ 80%: pest or weed control at 200 ppm [1] | pest or weed control at 200 ppm [2] | pest or weed control at 200 ppm [3] | pest or weed control at 200 ppm [4] | pest or weed control at 200 ppm [5] | pest or weed control at 200 ppm [6]

NS(=O)(=O)CS(=O)(=O)c1ccc(C2=NOC(c3cc(Cl)cc(Cl)c3)(C(F)(F)F)C2)cc1Br (stereo not shown) [Compound A4, [2-bromo-4-[5-(3,5-dichlorophenyl)-5-(trifluoromethyl)-4H-isoxazol-3-yl]phenyl]sulfonylmethanesulfonamide]
≥ 80%: pest or weed control at 200 ppm [1] | pest or weed control at 200 ppm [2] | pest or weed control at 200 ppm [3] | pest or weed control at 200 ppm [4] | pest or weed control at 200 ppm [6]

C#CCNS(=O)(=O)CSc1ccc(C2=NO[C@@](c3cc(Cl)cc(Cl)c3)(C(F)(F)F)C2)cc1Br [Compound B5, 1-[2-bromo-4-[(5S)-5-(3,5-dichlorophenyl)-5-(trifluoromethyl)-4H-isoxazol-3-yl]phenyl]sulfanyl-N-propargyl-methanesulfonamide]
≥ 80%: pest or weed control at 200 ppm [1] | pest or weed control at 200 ppm [2] | pest or weed control at 200 ppm [3] | pest or weed control at 200 ppm [4] | pest or weed control at 200 ppm [5] | pest or weed control at 200 ppm [6]

CC(C)NS(=O)(=O)CSc1ccc(C2=NO[C@@](c3cc(Cl)cc(Cl)c3)(C(F)(F)F)C2)cc1Br [Compound B4, 1-[2-bromo-4-[(5S)-5-(3,5-dichlorophenyl)-5-(trifluoromethyl)-4H-isoxazol-3-yl]phenyl]sulfanyl-N-isopropyl-methanesulfonamide]
≥ 80%: pest or weed control at 200 ppm [1] | pest or weed control at 200 ppm [2] | pest or weed control at 200 ppm [3] | pest or weed control at 200 ppm [4] | mortality at 200 ppm [7] | pest or weed control at 200 ppm [5] | pest or weed control at 200 ppm [6]
